As a reminder, the melting point is the temperature, or range, at which the solid turns liquid. A word on the pIC50: it is −log10 of the IC50, conventionally taken in molar units. Read a low pIC50 as a large IC50.

Molecules are shown by their SMILES. pIC50: −log10 of the molar value. Counter-ions that a name gives are not always drawn.

One series addresses T1, NMDA-receptor subtype 2B (Rattus norvegicus, UniProt P35439+Q00960).
T1 construct: Membranes were prepared by homogenization of the whole brain minus cerebellum and medulla oblongata; from tissue; host or cells: rat whole brain minus cerebellum and medulla oblongata (membranes)
Kind of series: 3H-Ro 25-6981 binding (displacement). Particulars: displacement of 5 nM 3H-Ro 25-6981 from rat brain membranes (whole brain minus cerebellum and medulla oblongata), 2 hours at 4° C., Tris-HCl 50 mM pH 7.4. The procedure:
^3H-Ro 25-6981 binding (Ro 25-6981 is [R—(R*,S*)]-α-(4-Hydroxy-phenyl)-β-methyl-4-(phenyl-methyl)-1-piperidine propanol)
Male Füllinsdorf albino rats weighing between 150–200 g were used. Membranes were prepared by homogenization of the whole brain minus cerebellum and medulla oblongata with a Polytron (10.000 rpm, 30 seconds), in 25 volumes of a cold Tris-HCl 50 mM, EDTA 10 mM, pH 7.1 buffer. The homogenate was centrifuged at 48,000 g for 10 minutes at 4° C. The pellet was resuspended using the Polytron in the same volume of buffer and the homogenate was incubated at 37° C. for 10 minutes. After centrifugation the pellet was homogenized in the same buffer and frozen at −80° C. for at least 16 hours but not more than 10 days. For the binding assay the homogenate was thawed at 37° C., centrifuged and the pellet was washed three times as above in a Tris-HCl 5 mM, pH 7.4 cold buffer. The final pellet was resuspended in the same buffer and used at a final concentration of […].
^3H-Ro 25-6981 binding experiments were performed using a Tris-HCl 50 mM, pH 7.4 buffer. For displacement experiments 5 nM of ^3H-Ro 25-6981 were used and non specific binding was measured using 10 mM of tetrahydroisoquinoline and usually it accounts for 10% of the total. The incubation time was 2 hours at 4° C. and the assay was stopped by filtration on Whatmann GF/B glass fiber filters (Unifilter-96, Packard, Zürich, Switzerland). The filters were washed 5 times with cold buffer. The radioactivity on the filter was counted on a Packard Top-count microplate scintillation counter after addition of […] of microscint 40 (Canberra Packard S. A., Zürich, Switzerland).
The above procedure was performed to determine data for calculation of an IC50 value. The IC50 value is a concentration expressed in micromoles (μM) for a test compound at which 50% of the ligand (in this determination, ^3H-Ro 25-6981) bonded to the receptor is displaced. The binding ability of the compounds of the invention was measured in vitro using a minimum of 10 concentrations and repeated at least once. The specific binding at each concentration was then calculated as the % of the maximum specific binding (100%) obtained in the same experiment, in the absence of a test compound. Competitive displacement of ^3H-Ro 25-6981 was observed, with complete displacement of the radioligand from specific binding sites (usually about 0% of specific binding at the highest concentrations tested). An IC50 value was then calculated with all the ten datapoints (% of specific bound) by plotting the data on a semilogarithmic scale with a sigmoidal fit (Log of the molar concentration on X-axis vs. % of specific bound on the Y-axis) using Microsoft Excel fit software or Microcal Origin software. The pooled normalized values were analyzed using a non-linear regression calculation program which provide IC50 with their relative upper and lower 95% confidence limits.

T1 sequence (Q00960 27-1482, other chains not shown): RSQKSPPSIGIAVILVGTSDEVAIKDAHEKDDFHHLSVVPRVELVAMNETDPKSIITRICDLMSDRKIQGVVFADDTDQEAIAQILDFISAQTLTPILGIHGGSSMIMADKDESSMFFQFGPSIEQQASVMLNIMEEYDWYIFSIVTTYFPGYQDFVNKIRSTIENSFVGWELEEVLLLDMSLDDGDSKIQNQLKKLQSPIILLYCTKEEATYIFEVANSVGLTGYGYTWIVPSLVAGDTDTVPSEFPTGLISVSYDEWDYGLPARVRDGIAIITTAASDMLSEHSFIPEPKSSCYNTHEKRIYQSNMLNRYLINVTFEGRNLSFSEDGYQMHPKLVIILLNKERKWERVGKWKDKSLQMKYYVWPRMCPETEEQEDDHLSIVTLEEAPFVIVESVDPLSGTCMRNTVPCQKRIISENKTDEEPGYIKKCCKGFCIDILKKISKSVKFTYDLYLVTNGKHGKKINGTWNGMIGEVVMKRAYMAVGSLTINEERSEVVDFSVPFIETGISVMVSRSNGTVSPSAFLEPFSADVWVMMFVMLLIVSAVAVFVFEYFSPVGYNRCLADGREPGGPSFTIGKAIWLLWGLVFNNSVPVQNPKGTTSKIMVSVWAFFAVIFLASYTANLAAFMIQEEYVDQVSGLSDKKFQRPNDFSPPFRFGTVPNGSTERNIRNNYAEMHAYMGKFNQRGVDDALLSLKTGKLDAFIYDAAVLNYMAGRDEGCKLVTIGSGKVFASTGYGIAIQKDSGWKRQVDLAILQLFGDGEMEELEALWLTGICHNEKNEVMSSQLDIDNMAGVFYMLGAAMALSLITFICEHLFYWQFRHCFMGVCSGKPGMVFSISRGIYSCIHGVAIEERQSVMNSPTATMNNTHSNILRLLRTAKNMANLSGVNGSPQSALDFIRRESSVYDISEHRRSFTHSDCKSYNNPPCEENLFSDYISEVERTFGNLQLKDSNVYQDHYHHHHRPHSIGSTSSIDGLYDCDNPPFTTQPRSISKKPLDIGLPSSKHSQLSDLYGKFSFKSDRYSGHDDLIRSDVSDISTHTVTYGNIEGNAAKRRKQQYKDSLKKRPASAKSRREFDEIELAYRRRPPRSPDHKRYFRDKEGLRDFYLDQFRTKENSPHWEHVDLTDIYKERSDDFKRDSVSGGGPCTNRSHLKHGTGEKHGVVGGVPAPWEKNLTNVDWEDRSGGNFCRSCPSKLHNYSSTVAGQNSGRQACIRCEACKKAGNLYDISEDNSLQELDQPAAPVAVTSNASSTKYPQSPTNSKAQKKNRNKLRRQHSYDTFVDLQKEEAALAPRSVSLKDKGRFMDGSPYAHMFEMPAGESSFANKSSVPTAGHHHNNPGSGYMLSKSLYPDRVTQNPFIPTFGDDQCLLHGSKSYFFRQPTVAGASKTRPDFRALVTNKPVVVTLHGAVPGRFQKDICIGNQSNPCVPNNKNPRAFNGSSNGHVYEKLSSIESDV

`Cl.Nc1cccc(C=Cc2cccc(C(F)(F)F)c2)n1` yielded a melting point of 222 to 223 °C.
Regarding `Cl.Nc1ccnc(C2=Cc3ccccc3CC2)c1` [Example 19, 2-(3,4-Dihydro-naphthalen-2-yl)-pyridin-4-yl-amine hydrochloride], the melting point was 231 to 232 °C. The molecule also had a negative logarithm of the IC50 (pIC50) at NMDA-receptor subtype 2B of 7.74.
`Cl.Nc1cccc(C=Cc2ccc(Cl)c(Cl)c2)n1` gave a melting point greater than 250 °C.
As for `Cl.NCc1cccc(/C=C/c2ccccc2)n1` [Example 18, trans-C-(6-Styryl-pyridin-2-yl)-methylamine hydrochloride], the melting point was 170 °C (dec.). In addition, the pIC50 on NMDA-receptor subtype 2B is 7.10.
Molecule `Cl.Nc1cccc(C=Cc2ccc(Cl)cc2)n1` displayed a melting point greater than 250 °C.
Turning to `COc1ccc(C=Cc2cccc(N)n2)cc1.Cl`, the melting point is 224 to 226 °C.
In turn, `Nc1cccc(C=Cc2ccc(O)cc2)n1` [Example 11, 4-[2-(6-Amino-pyridin-2-yl)-vinyl]-phenol] yielded a melting point of 224 to 225 °C.
In turn, `Cl.NCc1cccc(C2=Cc3ccccc3CC2)n1` [Example 28, C-[6-(3,4-Dihydro-naphthalen-2-yl)-pyridin-2-yl]-methylamine hydrochloride] showed a melting point of 203 to 204 °C. At NMDA-receptor subtype 2B, this molecule had a pIC50 of 7.42.
For the molecule `Cl.Nc1cccc(C=Cc2cccc(Cl)c2)n1`, the melting point lay in the range of 248 to 249 °C.
In turn, `Cc1cc(N)cc(C2=Cc3ccccc3CC2)n1.O=C(O)/C=C/C(=O)O` [Example 22, 2-(3,4-Dihydro-naphthalen-2-yl)-6-methyl-pyridin-4-yl-amine fumarate] had a melting point of 202 to 203 °C. Besides, the pIC50 on NMDA-receptor subtype 2B was 7.49.
For `CCc1cc(N)cc(C2=Cc3ccccc3CC2)n1.O=C(O)/C=C/C(=O)O` [Example 26, 2-(3,4-Dihydro-naphthalen-2-yl)-6-ethyl-pyridin-4-yl-amine fumarate], the melting point is > 230 °C (dec.). The pIC50 at NMDA-receptor subtype 2B was 7.42.
Consider `Cl.Nc1cccc(C=Cc2ccc(F)cc2)n1`, for which the melting point was greater than 250 °C.
Regarding `Nc1ccc(/C=C/c2ccccc2)nc1` [Example 15, trans-6-Styryl-pyridin-3-yl-amine], the melting point was in the range of 159 to 160 °C.
Molecule `Cc1cc(/C=C/c2ccccc2)cc(N)n1` [Example 13, trans-6-Methyl-4-styryl-pyridin-2-yl-amine] showed a melting point of 149 to 150 °C. For the same molecule, the pIC50 at NMDA-receptor subtype 2B was 7.52.
`COc1ccc2c(c1)C=C(c1cc(N)ccn1)CC2.O=C(O)/C=C/C(=O)O` registered a melting point of 193 to 194 °C.
Molecule `Nc1ccnc(C2=Cc3cc(Cl)ccc3CC2)c1` [Example 30, 2-(7-Chloro-3,4-dihydro-naphthalen-2-yl)-pyridin-4-ylamine fumarate] showed a negative logarithm of the IC50 (pIC50) at NMDA-receptor subtype 2B of 7.70.
Molecule `Cc1ccc(C=Cc2cccc(N)n2)cc1.Cl` came in with a melting point greater than 250 °C.
In the case of `CNc1ccnc(C2=Cc3ccccc3CC2)c1.O=C(O)/C=C/C(=O)O` [Example 27, [2-(3,4-Dihydro-naphthalen-2-yl)-pyridin-4-yl]-methyl-amine fumarate], the melting point is 106 to 107 °C. The molecule also showed a pIC50 at NMDA-receptor subtype 2B of 7.28.
On to `Cc1cnc(C2=Cc3ccsc3CC2)cc1N.O=C(O)/C=C/C(=O)O`, for which the melting point fell in the range of 218 to 219 °C.
`Cc1c(N)ccnc1C1=Cc2ccccc2CC1` [Example 25, 2-(3,4-Dihydro-naphthalen-2-yl)-3-methyl-pyridin-4-yl-amine]: the melting point is 87 to 88 °C.
On to `Cc1cnc(C2=Cc3cc(Cl)ccc3CC2)cc1N.O=C(O)/C=C/C(=O)O`, for which the melting point is greater than 250 °C.
Molecule `CNc1cccc(/C=C/c2ccccc2)n1.Cl` registered a melting point of 157 to 158 °C.
Turning to `Cc1cc(N)cc(C2=Cc3ccccc3C(C)C2)n1.O=C(O)/C=C/C(=O)O` (racemic), the melting point is 183 to 185 °C (dec.).
The molecule `Cc1ccc(C)c2c1C=C(c1cc(N)ccn1)CC2.O=C(O)/C=C/C(=O)O` registered a melting point of 232 to 233 °C.
On to `Cc1cc(C)c2c(c1)C=C(c1cc(N)ccn1)CC2.O=C(O)/C=C/C(=O)O` [Example 34, 2-(5,7-Dimethyl-3,4-dihydro-naphthalen-2-yl)-pyridin-4-yl-amine fumarate], for which the melting point lay within 231 to 232 °C. Besides, the pIC50 on NMDA-receptor subtype 2B is 7.24.
`Cl.Nc1cccc(C=Cc2ccccc2F)n1`: the melting point was greater than 250 °C.
As to `Cc1cnc(C2=Cc3ccccc3C(C)C2)cc1N.O=C(O)/C=C/C(=O)O` (racemic), the melting point is 210 to 211 °C.
`CCc1cc(N)cc(C2=Cc3cc(Cl)ccc3CC2)n1.O=C(O)/C=C/C(=O)O` [Example 36, 2-(7-Chloro-3,4-dihydro-naphthalen-2-yl)-6-ethyl-pyridin-4-yl-amine fumarate]: the melting point is 232 to 233 °C. The pIC50 at NMDA-receptor subtype 2B was 7.64.
The molecule `Cc1cc(N)nc(C2=Cc3ccccc3CC2)c1.O=C(O)/C=C/C(=O)O` yielded a melting point of 142 to 143 °C.
`Nc1cc(CO)nc(C2=Cc3ccccc3CC2)c1.O=C(O)/C=C/C(=O)O`: the melting point was 113 °C (dec.).
`Nc1ccnc(C2=Cc3ccsc3CC2)c1.O=C(O)/C=C/C(=O)O` displayed a melting point of 199 to 200 °C.
`Nc1cccc(C2=Cc3ccccc3CC2)n1.O=C(O)/C=C/C(=O)O` came in with a melting point of 153 to 154 °C.
As for `Nc1ccnc(/C=C/c2ccccc2)c1` [Example 16, trans-2-Styryl-pyridin-4-yl-amine], the melting point was in the range of 164 to 165 °C. Further, the pIC50 on NMDA-receptor subtype 2B was 7.40.
Consider `Cc1cc(N)cc(C2=Cc3cc(Cl)ccc3CC2)n1.O=C(O)/C=C/C(=O)O` [Example 37, 2-(7-Chloro-3,4-dihydro-naphthalen-2-yl)-6-methyl-pyridin-4-yl-amine fumarate], for which the melting point lay in the range of 232 to 233 °C. On NMDA-receptor subtype 2B, this molecule had a pIC50 of 7.09.
In turn, `Cc1cc(N)nc(/C=C/c2ccccc2)c1.Cl` [Example 14, trans-4-Methyl-6-styryl-pyridin-2-yl-amine hydrochloride] came in with a melting point greater than 250 °C. The pIC50 at NMDA-receptor subtype 2B was 8.00.
With `Cl.Nc1cccc(C=Cc2cccc(F)c2)n1`, the melting point is greater than 250 °C.
`Cc1cnc(C2=Cc3ccccc3CC2)cc1N.O=C(O)/C=C/C(=O)O` [Example 24, 2-(3,4-Dihydro-naphthalen-2-yl)-5-methyl-pyridin-4-yl-amine fumarate]: the melting point is > 200 °C (dec.). The pIC50 on NMDA-receptor subtype 2B was 7.96.
In the case of `CC1CC(c2cc(N)ccn2)=Cc2ccccc21.O=C(O)/C=C/C(=O)O` (racemic), the melting point was 176 to 177 °C.
The molecule `COc1cccc2c1CCC(c1cc(N)ccn1)=C2.O=C(O)/C=C/C(=O)O` showed a melting point of 207 to 208 °C.

For the origin of these results see patent US7034044B2, “Conjugated aromatic compounds with a pyridine substituent” (Hoffmann-La Roche Inc., priority 2001, dated 2006).
